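Dose response: 5 concentrations. Exposure: 48 h. Format: 96-well plates. Endpoint: linear interpolation; highest concentration if not reached. GI50: concentration for 50% inhibition of growth.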 Calls of active or inactive are those of the source. Rule as the data show it: active = GI50 up to about 1.1 µM and inactive = higher.
What was measured:
Experiment in all cases: NCI-60 cell line screen, 48 h
NCI-H23 = tested on: NCI-H23
SNB-75 = tested on: SNB-75
SF-295 = tested on: SF-295
HOP-92 = tested on: HOP-92
DU-145 = tested on: DU-145
MCF7 = tested on: MCF7
M14 = tested on: M14
BT-549 = tested on: BT-549
SW-620 = tested on: SW-620
U-251 = tested on: U-251
T47D = tested on: T47D
Hs-578T = tested on: Hs-578T
MDA-MB-435 = tested on: MDA-MB-435
OVCAR-5 = tested on: OVCAR-5
MOLT-4 = tested on: MOLT-4
RXF 393 = tested on: RXF 393
SK-MEL-28 = tested on: SK-MEL-28
NCI-H226 = tested on: NCI-H226
SNB-19 = tested on: SNB-19

Measured: GI50

Clc1ccc(-c2cn3c(nc4ccccc43)c(-c3ccccc3)n2)cc1
inactive: NCI-H23 24.5 µM | SNB-75 9.51 µM | SF-295 13.3 µM | HOP-92 18 µM | DU-145 > 71.9 µM | MCF7 28.1 µM | M14 28.3 µM | BT-549 19.5 µM | SW-620 43.3 µM | U-251 12.8 µM | T47D 36.6 µM | Hs-578T 12.3 µM | MDA-MB-435 25.2 µM | OVCAR-5 > 38.9 µM | MOLT-4 > 100 µM | RXF 393 15.6 µM | SK-MEL-28 39.8 µM | NCI-H226 47 µM | SNB-19 13.9 µM

CCN(CC)CCN1c2ccccc2Sc2ccc3ccccc3c21
inactive: NCI-H23 15.5 µM | SNB-75 7.06 µM | SF-295 13.2 µM | HOP-92 3.37 µM | DU-145 3.93 µM | MCF7 9.27 µM | M14 3.01 µM | BT-549 14.9 µM | SW-620 11.4 µM | U-251 9.38 µM | T47D 2.01 µM | Hs-578T 13.5 µM | MDA-MB-435 8.63 µM | OVCAR-5 9.1 µM | MOLT-4 3.74 µM | RXF 393 2.12 µM | SK-MEL-28 7.46 µM | NCI-H226 7.45 µM | SNB-19 15.3 µM

c1c[nH]c(CN2CCN(Cc3ncc[nH]3)CC2)n1
inactive: NCI-H23 > 100 µM | SNB-75 > 100 µM | SF-295 > 100 µM | HOP-92 > 100 µM | DU-145 > 100 µM | MCF7 > 100 µM | M14 > 100 µM | BT-549 > 100 µM | SW-620 > 100 µM | U-251 > 100 µM | T47D > 100 µM | Hs-578T > 100 µM | MDA-MB-435 > 100 µM | OVCAR-5 > 100 µM | MOLT-4 > 100 µM | RXF 393 > 100 µM | SK-MEL-28 > 100 µM | NCI-H226 > 100 µM | SNB-19 > 100 µM

Cc1ccc(S(=O)(=O)CN2C(=O)C(c3ccccc3)(c3ccccc3)C23OC(c2ccc(Cl)cc2)=CC3=O)cc1 (stereo not given)
inactive: NCI-H23 > 10 µM | SNB-75 > 10 µM | SF-295 > 10 µM | HOP-92 > 10 µM | DU-145 > 10 µM | MCF7 > 10 µM | M14 > 10 µM | BT-549 > 10 µM | SW-620 > 10 µM | U-251 > 10 µM | T47D > 10 µM | Hs-578T > 10 µM | MDA-MB-435 > 10 µM | OVCAR-5 > 10 µM | MOLT-4 > 10 µM | RXF 393 > 10 µM | SK-MEL-28 > 10 µM | NCI-H226 > 10 µM | SNB-19 > 10 µM

NC(=O)NNCc1c(-c2ccccc2)no[n+]1[O-]
inactive: NCI-H23 > 100 µM | SNB-75 > 100 µM | SF-295 > 100 µM | HOP-92 > 100 µM | DU-145 > 100 µM | MCF7 > 100 µM | M14 > 100 µM | BT-549 > 100 µM | SW-620 > 100 µM | U-251 > 100 µM | T47D > 100 µM | Hs-578T > 100 µM | MDA-MB-435 > 100 µM | OVCAR-5 > 100 µM | MOLT-4 > 100 µM | RXF 393 > 100 µM | SK-MEL-28 > 100 µM | NCI-H226 > 100 µM | SNB-19 > 100 µM

From ChEMBL document CHEMBL1201862, “PubChem BioAssay data set” (2004)
